From US9521846B2, “Template-fixed peptidomimetics with antimicrobial activity” (priority 2006, dated 2016)
≈ marks a conversion by molar mass, not a printed value. Non-standard residues stand in square brackets, D forms with d. Residues, ends and D or L forms follow the SMILES beside them. Dab = NCC[C@H](N)C(=O)O

Legend:
in vivo = test: in vivo; set-up: species or system CD-1 mice
Experimental: Pharmacokinetic Study after Single Intravenous, Subcutaneous and Intraperitoneal Administration in Mice Pharmacokinetic study after single intravenous (i.v.) and subcutaneous (s.c.) administration was performed for the compound of Example 1 (“Ex. 1”). CD-1 mice (20-25 g) were used in the study. Physiological saline was used a vehicle. The volume was 2 ml/kg i.v., and 5 ml/kg s.c. and the peptide Ex. 1 was injected to give a final intravenous dose of 1 mg/kg, and a subcutaneous dose of 5 mg/kg. […] Plasma was removed from pelleted cells upon centrifugation and frozen at −80° C. prior to HPLC-MS analysis. “Blank” mouse plasma from untreated animals was used. Aliquots of plasma of 0.2 ml each were spiked with 50 ng of propranolol (Internal Standard, IS), (sample preparation by solid phase extraction on OASIS® BIB cartridges (Waters)) and with known amounts of Ex. 1 in order to obtain 9 plasma calibration samples in the range 10-5000 nM. […] The plate containing eluates was introduced into the concentrator system and taken to dryness. […] Samples coming from animal treatments were pooled in order to obtain an appropriate volume for the extraction. If the total volume obtained was less than 0.2 ml the appropriate amount of “blank” mouse plasma was added in order to keep the matrix identical to the calibration curve. Samples were than spiked with IS and processed as described for the calibration curve. PK analysis was performed on pooled data (generally n=2 or 3) using the software Win Nonlin (Pharsight). The area under the curve AUC was calculated by the linear trapezoidal rule. Elimination half-life was calculated by the linear regression on at least three data points during the elimination phase. The time intervals selected for the half-life determinations were evaluated by the correlation coefficient (r^2), which should be at least above 0.85 and most optimally above 0.96. In case of i.v. administration the initial concentration at tzero was determined by extrapolation of the curve through the first two time points. Finally bioavailability after […]. administration was calculated from the normalised AUCinf_D_obs ration after s.c. versus i.v. administration.

[1] = tested on: Pseudomonas aeruginosa IMP 1 Livermore 3140; format: cell-based; details: IMP 1 Livermore 3140
Summary of the method: (§1)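 Antimicrobial values come from two-fold serial dilutions of peptide in Mueller-Hinton broth plus 0.02% BSA, combined with an equal volume of inoculum at approximately 10^6 CFU/ml. The approach followed standard NCCLS broth microdilution, slightly modified.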

[2] = tested on: Pseudomonas aeruginosa P1021913; format: cell-based; details: P1021913
Summary of the method: as §1

[3] = tested on: Pseudomonas aeruginosa P8191900; format: cell-based; details: P8191900
Summary of the method: as §1

[4] = tested on: Pseudomonas aeruginosa P1021903; format: cell-based; details: P1021903
Summary of the method: as §1

[5] = tested on: Pseudomonas aeruginosa (ATCC 27853); test: In vivo septicemia assay; set-up: species or system CD-1 mice; details: groups of 6 mice
Experimental: Groups of 6 CD-1 (Crl.) derived male mice weighing 24±2 g were used. The mice were each inoculated intravenously (IV) with an LD90-100 of Pseudomonas aeruginosa (ATCC 27853) (9×10^6 CFU/0.5 ml/mouse) in brain heart infusion broth without 5% mucin. Compound at doses of 5, 2.5, 1, 0.5, 0.25 and 0.1 mg/kg, vehicle (0.9% NaCl, 10 ml/kg) was administered subcutaneously (SC) to test animals at 1 hour after bacterial inoculation. Also, an additional group was treated twice with compound at a dose of 5 mg/kg at 1 and 6 hours after bacterial inoculation. Mortality was recorded once daily for 7 days following the bacterial inoculation and an increase of survival of the animals by 50 percent or more (^3 50%) after the bacterial inoculation, relative to vehicle control, indicates significant antimicrobial effect. The MED (ED50) was determined by nonlinear regression using Graph-Pad Prism (Graph Pad Software, USA).
Septicaemia experiment in mice: LD90-100 of Pseudomonas aeruginosa (ATCC 27853) (9×10^6 CFU/0.5 ml/mouse IV and after 1 h Ex. 1 s.c.
Septicaemia experiment in mice: LD90-100 of Pseudomonas aeruginosa (ATCC 27853) (9×10^6 CFU/0.5 ml/mouse IV), and after 1 and 5 h Ex. 40 s.c.
Septicaemia experiment in mice: LD90-100 of Pseudomonas aeruginosa (ATCC 27853) (9×10^6 CFU/0.5 ml/mouse IV), and after 1 and 5 h Ex. 50 s.c.

[6] = 0.1 mg/kg, 1 h after inoculation
[7] = 0.25 mg/kg, 1 h after inoculation
[8] = 0.5 mg/kg, 1 h after inoculation
[9] = 2.5 mg/kg, 1 h after inoculation

## CC[C@H](C)[C@@H]1NC(=O)[C@H](Cc2c[nH]c3ccccc23)NC(=O)[C@H]([C@@H](C)O)NC(=O)[C@@H]2CCCN2C(=O)[C@H]2CCCN2C(=O)[C@H](CCN)NC(=O)[C@H](C)NC(=O)[C@H](CCN)NC(=O)[C@H](CCN)NC(=O)[C@H](Cc2c[nH]c3ccccc23)NC(=O)[C@H](CCN)NC(=O)[C@H](CCN)NC(=O)[C@H](CCCCN)NC(=O)[C@H](CCN)NC1=O [Example 1] (cyclo(TWI[Dab]K[Dab][Dab]W[Dab][Dab]A[Dab][dP]P))
P. aeruginosa
  Average MIC: 0.10 µg/mL
In vivo; CD-1, mouse, iv, 1 mg/kg
  Vd: 1.14 L/kg
  clearance: 25.7 mL/min/kg
  level at 0.25 h: 575 ng/mL
  level at 1 h: 177 ng/mL
  level at 3 h: 10.6 ng/mL
In vivo; CD-1, mouse, sc, 5 mg/kg
  level at 8 h: 7.3 ng/mL
In vivo; mouse, 5 mg/kg
  bioavailability: 118.2%
In vivo; mouse, 5 mg/kg, Bioavailability
  bioavailability: 118%
In vivo; mouse, iv, 1 mg/kg
  AUC(0-inf): 680 ng·h/mL
  C0: 2170 ng/mL
  Cmax_D: 1268.0 kg·ng/mL/mg
  Tmax: 4.8 min
  half-life: 31.8 min
In vivo; mouse, iv, 1 mg/kg, Bioavailability
  bioavailability: 100%
In vivo; mouse, iv, 1 mg/kg, Cmax
  Cmax: 1270 ng/mL
In vivo; mouse, sc, 5 mg/kg
  AUC(0-inf): 4020 ng·h/mL
  Cl_obs: 20.83 mL/min/kg
  Cmax: 2333.3 ng/mL
  Cmax_D: 466.7 kg·ng/mL/mg
  Tmax: 34.8 min
  Vz_obs: 1.7056 L/kg
  half-life: 57 min
In vivo; mouse, sc, 5 mg/kg, Cmax
  Cmax: 2330 ng/mL
[1]
  MIC P. aeruginosa IMP1 Livermore 3140: 0.18 µg/mL (≈ 0.114 µM)
[2]
  MIC P. aeruginosa P1021913: 0.13 µg/mL (≈ 0.0822 µM)
[3]
  MIC P. aeruginosa P8191900: 0.07 µg/mL (≈ 0.0443 µM)
[4]
  MIC P. aeruginosa P1021903: 0.07 µg/mL (≈ 0.0443 µM)
[5]; [6]
  Dead: 5
  Survivors: 1
[5]; [7]
  Dead: 5
  Survivors: 1
[5]; [8]
  Dead: 2
  Survivors: 4
[5]; 1 mg/kg, 1 h after inoculation
  Dead: 1
  Survivors: 5
[5]; [9]
  Dead: 0
  Survivors: 6
[5]; 5 mg/kg, 1 h after inoculation
  Dead: 0
  Survivors: 6
[5]; 10 (2 × 5) mg/kg, 7 days
  Dead: 0
  Survivors: 6
